Test results from patent US20070099259A1, “ELECTROCHEMICAL ASSAY FOR THE IDENTIFICATION OF MICROORGANISMS” (RAPID LABORATORY MICROSYSTEMS INC., priority 2003, published 2007).
Read-outs that look alike come from different tables or passages of the source.

Key:
Test in all cases: Relative respiratory activity with 22 effectors (Example 3)
E. aerogenes ATCC13048e = type: cell-based, Enterobacter aerogenes; conditions: Klebsiella aerogenes, ATCC13048E; for activity at 20000 µM: effector 20 mM; for activity at 10000 µM: read-out: relative %-respiratory activity
From the text: (§1) In this example, each microorganism is subjected to 22 different effector compounds in addition to control measurements. […] For each microorganism, duplicate measurements were made of 22 different effector compounds. In addition, duplicate measurements were made a control test containing no effector compound. One additional measurement was made of a control solution containing the microorganism with ferricyanide but without effector or DCIP.
(§2) In this example, each normalized data set containing duplicate measurements for each of 22 effector compounds is referenced to the duplicate internal controls to allow batch-to-batch comparison. The obtained signals of charge per unit electrode area for the duplicate control measurements are averaged and set at 100% respiratory cycle activity. […] The data set used to generate pattern recognition plots consists of 5 replicate batches (each batch containing duplicate measurements for each of 22 effector compounds) for each cell culture (10 strains). This is used to generate a 50 (columns)×22 (rows) matrix. The matrix is imported into MATLAB (Version 6.0). Factor analysis is performed using the MATLAB Chemometric Toolbox (Version 2.3) and involves the generation of reduced eigenvectors to determine the optimal number of factors, examination of the resulting residuals plots for randomness, and the generation of scores for the first four principle components.

P. vulgaris ATCC6380 = type: cell-based, Proteus vulgaris; conditions: Proteus vulgaris; for activity at 20000 µM: effector 20 mM
From the text: as §1, §2

E. coli B = type: cell-based; conditions: Escherichia coli; for activity at 20000 µM: effector 20 mM; for activity at 10000 µM: read-out: relative %-respiratory activity
From the text: as §1, §2

E. coli Neotype = type: cell-based; conditions: Escherichia coli; for activity at 20000 µM: effector 20 mM; for activity at 10000 µM: read-out: relative %-respiratory activity
From the text: as §1, §2

E. coli JM105 = type: cell-based; conditions: Escherichia coli; for activity at 20000 µM: effector 20 mM
From the text: as §1, §2

E. coli HB101 = type: cell-based; conditions: Escherichia coli; for activity at 20000 µM: effector 20 mM
From the text: as §1, §2

S. aureus ATCC6538P = type: cell-based, Staphylococcus aureus; conditions: Staphylococcus aureus, ATCC6538P; for activity at 20000 µM: effector 20 mM; for activity at 10000 µM: read-out: relative %-respiratory activity
From the text: as §1, §2

P. aeruginosa = type: cell-based, Pseudomonas aeruginosa; conditions: Pseudomonas aeruginosa; for activity at 20000 µM: effector 20 mM; for activity at 10000 µM: read-out: relative %-respiratory activity
From the text: as §1, §2

S. cerevisiae = type: cell-based, Saccharomyces cerevisiae; conditions: Saccharomyces cerevisiae; for activity at 20000 µM: effector 20 mM; for activity at 10000 µM: read-out: relative %-respiratory activity
From the text: as §1, §2

E. faecalis = type: cell-based, Enterococcus faecalis; conditions: Enterococcus faecalis; for activity at 20000 µM: effector 20 mM; for activity at 10000 µM: read-out: relative %-respiratory activity
From the text: as §1, §2

[1] = 5 μM DCIP, no effector = 100%, n = 26
[2] = ATCC6380, 5 μM DCIP, no effector = 100%, n = 20
[3] = 5 μM DCIP, no effector = 100%, n = 10
[4] = JM105, 5 μM DCIP, no effector = 100%, n = 10
[5] = HB101, 5 μM DCIP, no effector = 100%, n = 18
[6] = 5 μM DCIP, no effector = 100%, n = 20
[7] = 5 μM DCIP, no effector = 100%, n = 18
[8] = effector 30 mM, 5 μM DCIP, no effector = 100%, n = 26
[9] = effector 30 mM, 5 μM DCIP, no effector = 100%, n = 10
[10] = effector 30 mM, 5 μM DCIP, no effector = 100%, n = 20
[11] = ATCC6380, read-out: relative %-respiratory activity
[12] = JM105, read-out: relative %-respiratory activity
[13] = HB101, read-out: relative %-respiratory activity
[14] = effector 10 mM, 5 μM DCIP, no effector = 100%, n = 26
[15] = effector 10 mM, 5 μM DCIP, no effector = 100%, n = 20

O=C[C@H](O)[C@@H](O)[C@@H](O)[C@H](O)CO [D-galactose]
activity at 20000 µM (E. aerogenes ATCC13048e; [1]): 334%
activity at 20000 µM (P. vulgaris ATCC6380; [2]): 341%
activity at 20000 µM (E. coli B; [3]): 165%
activity at 20000 µM (E. coli Neotype; [1]): 155%
activity at 20000 µM (E. coli JM105; [4]): 173%
activity at 20000 µM (E. coli HB101; [5]): 153%
activity at 20000 µM (S. aureus ATCC6538P; [6]): 195%
activity at 20000 µM (P. aeruginosa; [7]): 130%
activity at 20000 µM (S. cerevisiae; [3]): 143%
activity at 20000 µM (E. faecalis; [6]): 200%

OC[C@H]1O[C@@H](O[C@H]2[C@H](O)[C@@H](O)C(O)O[C@@H]2CO)[C@H](O)[C@@H](O)[C@H]1O (stereo partly drawn) [D-lactose]
activity at 20000 µM (E. aerogenes ATCC13048e; [1]): 268%
activity at 20000 µM (P. vulgaris ATCC6380; [2]): 162%
activity at 20000 µM (E. coli B; [3]): 164%
activity at 20000 µM (E. coli Neotype; [1]): 150%
activity at 20000 µM (E. coli JM105; [4]): 115%
activity at 20000 µM (E. coli HB101; [5]): 192%
activity at 20000 µM (S. aureus ATCC6538P; [6]): 138%
activity at 20000 µM (P. aeruginosa; [7]): 108%
activity at 20000 µM (S. cerevisiae; [3]): 126%
activity at 20000 µM (E. faecalis; [6]): 123%

OC[C@@H](O)[C@@H](O)[C@H](O)[C@@H](O)CO [D-sorbitol]
activity at 30000 µM (E. aerogenes ATCC13048e; [8]): 260%
activity at 30000 µM (P. vulgaris ATCC6380; ATCC6380, effector 30 mM, 5 μM DCIP, no effector = 100%, n = 20): 186%
activity at 30000 µM (E. coli B; [9]): 136%
activity at 30000 µM (E. coli Neotype; [8]): 111%
activity at 30000 µM (E. coli JM105; JM105, effector 30 mM, 5 μM DCIP, no effector = 100%, n = 10): 168%
activity at 30000 µM (E. coli HB101; HB101, effector 30 mM, 5 μM DCIP, no effector = 100%, n = 18): 124%
activity at 30000 µM (S. aureus ATCC6538P; [10]): 167%
activity at 30000 µM (P. aeruginosa; effector 30 mM, 5 μM DCIP, no effector = 100%, n = 18): 104%
activity at 30000 µM (S. cerevisiae; [9]): 113%
activity at 30000 µM (E. faecalis; [10]): 179%

O=C[C@H](O)[C@@H](O)[C@H](O)CO [D-xylose]
activity at 20000 µM (E. aerogenes ATCC13048e; [1]): 149%
activity at 20000 µM (P. vulgaris ATCC6380; [2]): 178%
activity at 20000 µM (E. coli B; [3]): 102%
activity at 20000 µM (E. coli Neotype; [1]): 110%
activity at 20000 µM (E. coli JM105; [4]): 134%
activity at 20000 µM (E. coli HB101; [5]): 110%
activity at 20000 µM (S. aureus ATCC6538P; [6]): 128%
activity at 20000 µM (P. aeruginosa; [7]): 113%
activity at 20000 µM (S. cerevisiae; [3]): 116%
activity at 20000 µM (E. faecalis; [6]): 128%

O=CO [Formic acid]
activity at 10000 µM (E. aerogenes ATCC13048e): 124%
activity at 10000 µM (P. vulgaris ATCC6380; [11]): 222%
activity at 10000 µM (E. coli B): 132%
activity at 10000 µM (E. coli Neotype): 114%
activity at 10000 µM (E. coli JM105; [12]): 136%
activity at 10000 µM (E. coli HB101; [13]): 163%
activity at 10000 µM (S. aureus ATCC6538P): 298%
activity at 10000 µM (P. aeruginosa): 120%
activity at 10000 µM (S. cerevisiae): 132%
activity at 10000 µM (E. faecalis): 157%

NCCCC[C@H](N)C(=O)O [L-lysine]
activity at 10000 µM (E. aerogenes ATCC13048e): 125%
activity at 10000 µM (P. vulgaris ATCC6380; [11]): 219%
activity at 10000 µM (E. coli B): 100%
activity at 10000 µM (E. coli Neotype): 101%
activity at 10000 µM (E. coli JM105; [12]): 118%
activity at 10000 µM (E. coli HB101; [13]): 125%
activity at 10000 µM (S. aureus ATCC6538P): 159%
activity at 10000 µM (P. aeruginosa): 186%
activity at 10000 µM (S. cerevisiae): 240%
activity at 10000 µM (E. faecalis): 243%

O=C(O)CC(=O)O [Malonic acid]
activity at 10000 µM (E. aerogenes ATCC13048e; [14]): 156%
activity at 10000 µM (P. vulgaris ATCC6380; ATCC6380, effector 10 mM, 5 μM DCIP, no effector = 100%, n = 20, read-out: relative %-respiratory activity): 125%
activity at 10000 µM (E. coli Neotype; [14]): 141%
activity at 10000 µM (E. coli JM105; JM105, effector 10 mM, 5 μM DCIP, no effector = 100%, n = 10, read-out: relative %-respiratory activity): 160%
activity at 10000 µM (E. coli HB101; HB101, effector 10 mM, 5 μM DCIP, no effector = 100%, n = 18, read-out: relative %-respiratory activity): 124%
activity at 10000 µM (S. aureus ATCC6538P; [15]): 117%
activity at 10000 µM (P. aeruginosa; effector 10 mM, 5 μM DCIP, no effector = 100%, n = 18): 125%
activity at 10000 µM (S. cerevisiae; effector 10 mM, 5 μM DCIP, no effector = 100%, n = 10): 110%
activity at 10000 µM (E. faecalis; [15]): 146%
